{"source": "patent US20130005747A1", "about": "“METHOD FOR SELECTING A CANCER THERAPY” (Cyclacel Limited, priority 2010, published 2013)", "experiment_in_all_cases": "Fractional growth, 72 h seliciclib", "format_in_all_cases": "cell-based, human", "key": {"B-CPAP": {"system": "B-CPAP", "settings": "B-CPAP (Thyroid), 15 μM seliciclib", "from_the_text": "(§1) A total of 270 human cancer cell lines from diverse cancer histopathologic types were investigated."}, "NCI-H1048": {"system": "NCI-H1048", "settings": "NCI-H1048 (Lung), 15 μM seliciclib", "from_the_text": "as §1"}, "G-292 Clone A141B1": {"system": "G-292 Clone A141B1", "settings": "G-292 Clone A141B1 (Bone), 15 μM seliciclib", "from_the_text": "as §1"}, "MFM-223": {"system": "MFM-223", "settings": "MFM-223 (Breast), 15 μM seliciclib", "from_the_text": "as §1"}, "AsPC-1": {"system": "AsPC-1", "settings": "AsPC-1 (Pancreas), 15 μM seliciclib", "from_the_text": "as §1"}, "PC-9": {"system": "PC-9", "settings": "PC-9 (Lung: NSCLC), 15 μM seliciclib", "from_the_text": "as §1"}, "NCI-H1975": {"system": "NCI-H1975", "settings": "NCI-H1975 (Lung: NSCLC), 15 μM seliciclib", "from_the_text": "as §1"}, "G-402": {"system": "G-402", "settings": "G-402 (Kidney), 15 μM seliciclib", "from_the_text": "as §1"}, "TCCSUP": {"system": "TCCSUP", "settings": "TCCSUP (Bladder), 15 μM seliciclib", "from_the_text": "as §1"}, "LUDLU-1": {"system": "LUDLU-1", "settings": "LUDLU-1 (Lung: NSCLC), 15 μM seliciclib", "from_the_text": "as §1"}, "PCI-6A": {"system": "PCI-6A", "settings": "PCI-6A (Head & Neck), 15 μM seliciclib", "from_the_text": "as §1"}, "U-2 OS": {"system": "U-2 OS", "settings": "U-2 OS (Bone), 15 μM seliciclib", "from_the_text": "as §1"}, "HTC-C3": {"system": "HTC-C3", "settings": "HTC-C3 (Thyroid), 15 μM seliciclib", "from_the_text": "as §1"}, "Calu-1": {"system": "Calu-1", "settings": "Calu-1 (Lung: NSCLC), 15 μM seliciclib", "from_the_text": "as §1"}, "CAL-12T": {"system": "CAL-12T", "settings": "CAL-12T (Lung: NSCLC), 15 μM seliciclib", "from_the_text": "as §1"}, "SCC-25": {"system": "SCC-25", "settings": "SCC-25 (Head & Neck), 15 μM seliciclib", "from_the_text": "as §1"}, "Sarc9371": {"system": "Sarc9371", "settings": "Sarc9371 (Bone), 15 μM seliciclib", "from_the_text": "as §1"}, "NCI-H1793": {"system": "NCI-H1793", "settings": "NCI-H1793 (Lung: NSCLC), 15 μM seliciclib", "from_the_text": "as §1"}, "MES-SA": {"system": "MES-SA", "settings": "MES-SA (Uterus), 15 μM seliciclib", "from_the_text": "as §1"}, "GCT": {"system": "GCT", "settings": "GCT (Miscellaneous), 15 μM seliciclib", "from_the_text": "as §1"}, "DBTRG-05MG": {"system": "DBTRG-05MG", "settings": "DBTRG-05MG (Brain), 15 μM seliciclib", "from_the_text": "as §1"}, "KP-3L": {"system": "KP-3L", "settings": "KP-3L (Pancreas), 15 μM seliciclib", "from_the_text": "as §1"}, "AGS": {"system": "AGS", "settings": "AGS (Stomach), 15 μM seliciclib", "from_the_text": "as §1"}, "NCI-H2085": {"system": "NCI-H2085", "settings": "NCI-H2085 (Lung: NSCLC), 15 μM seliciclib", "from_the_text": "as §1"}, "CS1R": {"system": "CS1R", "settings": "CS1R (Bone), 15 μM seliciclib", "from_the_text": "as §1"}, "NCI-H1435": {"system": "NCI-H1435", "settings": "NCI-H1435 (Lung: NSCLC), 15 μM seliciclib", "from_the_text": "as §1"}, "M-14": {"system": "M-14", "settings": "M-14 (Skin), 15 μM seliciclib", "from_the_text": "as §1"}, "A-204": {"system": "A-204", "settings": "A-204 (Muscle), 15 μM seliciclib", "from_the_text": "as §1"}, "TOV-112D": {"system": "TOV-112D", "settings": "TOV-112D (Ovary), 15 μM seliciclib", "from_the_text": "as §1"}, "TYK-nu": {"system": "TYK-nu", "settings": "TYK-nu (Ovary), 15 μM seliciclib", "from_the_text": "as §1"}, "NCI-H727": {"system": "NCI-H727", "settings": "NCI-H727 (Lung), 15 μM seliciclib", "from_the_text": "as §1"}, "PC-14": {"system": "PC-14", "settings": "PC-14 (Lung: NSCLC), 15 μM seliciclib", "from_the_text": "as §1"}, "T24": {"system": "T24", "settings": "T24 (Bladder), 15 μM seliciclib", "from_the_text": "as §1"}, "HT 1080": {"system": "HT 1080", "settings": "HT 1080 (Miscellaneous), 15 μM seliciclib", "from_the_text": "as §1"}}}
{"compound": "CC[C@H](CO)Nc1nc(NCc2ccccc2)c2ncn(C(C)C)c2n1", "note": "[seliciclib, roscovitine]", "values": [{"measurement": "Fractional Growth", "setting": "B-CPAP", "value": 0.5754}, {"measurement": "Fractional Growth", "setting": "NCI-H1048", "value": 0.5502}, {"measurement": "Fractional Growth", "setting": "G-292 Clone A141B1", "value": 0.6393}, {"measurement": "Fractional Growth", "setting": "MFM-223", "value": 0.5683}, {"measurement": "Fractional Growth", "setting": "AsPC-1", "value": 0.6879}, {"measurement": "Fractional Growth", "setting": "PC-9", "value": 0.7822}, {"measurement": "Fractional Growth", "setting": "NCI-H1975", "value": 0.4117}, {"measurement": "Fractional Growth", "setting": "G-402", "value": 0.2708}, {"measurement": "Fractional Growth", "setting": "TCCSUP", "value": 0.6407}, {"measurement": "Fractional Growth", "setting": "LUDLU-1", "value": 0.7029}, {"measurement": "Fractional Growth", "setting": "PCI-6A", "value": 0.5818}, {"measurement": "Fractional Growth", "setting": "U-2 OS", "value": 0.5686}, {"measurement": "Fractional Growth", "setting": "HTC-C3", "value": 0.3914}, {"measurement": "Fractional Growth", "setting": "Calu-1", "value": 0.6124}, {"measurement": "Fractional Growth", "setting": "CAL-12T", "value": 0.3472}, {"measurement": "Fractional Growth", "setting": "SCC-25", "value": 0.571}, {"measurement": "Fractional Growth", "setting": "Sarc9371", "value": 0.6425}, {"measurement": "Fractional Growth", "setting": "NCI-H1793", "value": 0.6274}, {"measurement": "Fractional Growth", "setting": "MES-SA", "value": 0.3922}, {"measurement": "Fractional Growth", "setting": "GCT", "value": 0.4799}, {"measurement": "Fractional Growth", "setting": "DBTRG-05MG", "value": 0.7139}, {"measurement": "Fractional Growth", "setting": "KP-3L", "value": 0.4338}, {"measurement": "Fractional Growth", "setting": "AGS", "value": 0.2157}, {"measurement": "Fractional Growth", "setting": "NCI-H2085", "value": 0.4597}, {"measurement": "Fractional Growth", "setting": "CS1R", "value": 0.2923}, {"measurement": "Fractional Growth", "setting": "NCI-H1435", "value": 0.6379}, {"measurement": "Fractional Growth", "setting": "M-14", "value": 0.3765}, {"measurement": "Fractional Growth", "setting": "A-204", "value": 0.2653}, {"measurement": "Fractional Growth", "setting": "TOV-112D", "value": 0.3156}, {"measurement": "Fractional Growth", "setting": "TYK-nu", "value": 0.3005}, {"measurement": "Fractional Growth", "setting": "NCI-H727", "value": 0.5866}, {"measurement": "Fractional Growth", "setting": "PC-14", "value": 0.5776}, {"measurement": "Fractional Growth", "setting": "T24", "value": 0.5262}, {"measurement": "Fractional Growth", "setting": "HT 1080", "value": 0.2044}]}
